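These data come from cells grown in 96-well plates and exposed to compound for 48 hours at five concentrations. GI50: concentration for 50% inhibition of growth.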 Calls of active or inactive are those of the source. Rule as the data show it: active = GI50 up to about 1.1 µM and inactive = higher.
Columns and labels:
Experiment in all cases: DTP human tumour cell line panel, 48 h
A549 = system: A549
U-251 = system: U-251
TK-10 = system: TK-10
SNB-75 = system: SNB-75
ACHN = system: ACHN
MOLT-4 = system: MOLT-4
K562 = system: K562
HCT-15 = system: HCT-15
OVCAR-5 = system: OVCAR-5
OVCAR-8 = system: OVCAR-8
MDA-MB-435 = system: MDA-MB-435
OVCAR-3 = system: OVCAR-3
M14 = system: M14
NCI-H522 = system: NCI-H522
NCI-H226 = system: NCI-H226
SN12C = system: SN12C
UACC-257 = system: UACC-257
SW-620 = system: SW-620
SF-268 = system: SF-268
Malme-3M = system: Malme-3M

SMILES: CCC(=O)N(c1ccccc1)C(C)CN1CCC(O)(c2cccc(C(F)(F)F)c2)CC1 (configuration not stated)
- GI50 (A549): 39 µM (inactive)
- GI50 (U-251): 37.2 µM (inactive)
- GI50 (TK-10): 25.1 µM (inactive)
- GI50 (SNB-75): 32.8 µM (inactive)
- GI50 (ACHN): 36.2 µM (inactive)
- GI50 (MOLT-4): 17.9 µM (inactive)
- GI50 (K562): 20.9 µM (inactive)
- GI50 (HCT-15): 30.6 µM
- GI50 (OVCAR-5): 22.8 µM (inactive)
- GI50 (OVCAR-8): 38.1 µM (inactive)
- GI50 (MDA-MB-435): 20.2 µM (inactive)
- GI50 (OVCAR-3): 45.6 µM (inactive)
- GI50 (M14): 16.1 µM (inactive)
- GI50 (NCI-H522): 20.2 µM (inactive)
- GI50 (NCI-H226): 30.2 µM (inactive)
- GI50 (SN12C): 37.9 µM (inactive)
- GI50 (UACC-257): 17.5 µM (inactive)
- GI50 (SW-620): > 100 µM (inactive)

SMILES: CO/N=C(\C)c1cccc(Nc2c3ccccc3nc3occc23)c1
- GI50 (A549): 11.7 µM (inactive)
- GI50 (U-251): 14.2 µM (inactive)
- GI50 (TK-10): 20.4 µM (inactive)
- GI50 (MOLT-4): 4.63 µM (inactive)
- GI50 (K562): 4.11 µM (inactive)
- GI50 (HCT-15): 6.21 µM
- GI50 (OVCAR-5): 20.5 µM (inactive)
- GI50 (OVCAR-8): 20 µM (inactive)
- GI50 (MDA-MB-435): 2.34 µM (inactive)
- GI50 (OVCAR-3): 4.72 µM (inactive)
- GI50 (M14): 8.97 µM (inactive)
- GI50 (NCI-H522): 3.66 µM (inactive)
- GI50 (NCI-H226): 12 µM (inactive)
- GI50 (SF-268): 11.2 µM (inactive)
- GI50 (SN12C): 16 µM (inactive)
- GI50 (UACC-257): 12.5 µM (inactive)
- GI50 (Malme-3M): 13.4 µM (inactive)

SMILES: Cc1ccc(S(=O)(=O)C2=C(C(C)C)N=NC2(C)C)cc1
- GI50 (A549): 81.3 µM (inactive)
- GI50 (U-251): > 100 µM (inactive)
- GI50 (TK-10): > 100 µM (inactive)
- GI50 (SNB-75): 95.3 µM (inactive)
- GI50 (ACHN): > 100 µM (inactive)
- GI50 (MOLT-4): 18.7 µM (inactive)
- GI50 (K562): 28.6 µM (inactive)
- GI50 (HCT-15): 73.6 µM
- GI50 (OVCAR-5): > 100 µM (inactive)
- GI50 (OVCAR-8): > 100 µM (inactive)
- GI50 (MDA-MB-435): 47.6 µM (inactive)
- GI50 (OVCAR-3): > 100 µM (inactive)
- GI50 (M14): > 100 µM (inactive)
- GI50 (NCI-H522): 36 µM (inactive)
- GI50 (NCI-H226): 61.8 µM (inactive)
- GI50 (SF-268): > 100 µM (inactive)
- GI50 (SN12C): > 100 µM (inactive)
- GI50 (UACC-257): > 100 µM (inactive)
- GI50 (SW-620): > 100 µM (inactive)

SMILES: [N-]=[N+]=Nc1ccccc1-c1ccccc1[N+](=O)[O-]
- GI50 (A549): > 100 µM (inactive)
- GI50 (U-251): 42.9 µM (inactive)
- GI50 (TK-10): 39.4 µM (inactive)
- GI50 (SNB-75): 50 µM (inactive)
- GI50 (ACHN): > 100 µM (inactive)
- GI50 (MOLT-4): 22.1 µM (inactive)
- GI50 (K562): 31.3 µM (inactive)
- GI50 (HCT-15): 42.6 µM
- GI50 (OVCAR-5): > 100 µM (inactive)
- GI50 (OVCAR-8): 73.3 µM (inactive)
- GI50 (MDA-MB-435): 32.3 µM (inactive)
- GI50 (OVCAR-3): 39.4 µM (inactive)
- GI50 (M14): 50.9 µM (inactive)
- GI50 (NCI-H522): 14.9 µM (inactive)
- GI50 (SF-268): 36.1 µM (inactive)
- GI50 (SN12C): 97.9 µM (inactive)
- GI50 (UACC-257): 25.4 µM (inactive)
- GI50 (SW-620): 48.5 µM (inactive)
- GI50 (Malme-3M): 26.4 µM (inactive)

SMILES: CCC(=O)Nc1ccc(NCC(=O)Nc2ccc(OC)cc2)cc1
- GI50 (A549): 54 µM (inactive)
- GI50 (SNB-75): 13.7 µM (inactive)
- GI50 (ACHN): 40.5 µM (inactive)
- GI50 (MOLT-4): 39 µM (inactive)
- GI50 (K562): 35.6 µM (inactive)
- GI50 (HCT-15): 32.8 µM
- GI50 (OVCAR-5): 17.4 µM (inactive)
- GI50 (OVCAR-8): 19.7 µM (inactive)
- GI50 (MDA-MB-435): 30.5 µM (inactive)
- GI50 (OVCAR-3): 25.2 µM (inactive)
- GI50 (M14): 49.3 µM (inactive)
- GI50 (NCI-H522): 15.2 µM (inactive)
- GI50 (NCI-H226): 12.4 µM (inactive)
- GI50 (SF-268): 17.7 µM (inactive)
- GI50 (SN12C): 18.1 µM (inactive)
- GI50 (UACC-257): 7.8 µM (inactive)
- GI50 (SW-620): 35.2 µM (inactive)
- GI50 (Malme-3M): 21.6 µM (inactive)

SMILES: CCCCN(CCCC)CC(O)c1cc(-c2ccc(C(F)(F)F)cc2)nc(-c2ccc(C(F)(F)F)cc2)c1 (configuration not stated)
- GI50 (U-251): > 100 µM (inactive)
- GI50 (TK-10): > 100 µM (inactive)
- GI50 (SNB-75): 13.8 µM (inactive)
- GI50 (ACHN): > 100 µM (inactive)
- GI50 (MOLT-4): > 100 µM (inactive)
- GI50 (K562): 76.2 µM (inactive)
- GI50 (HCT-15): 26.4 µM
- GI50 (OVCAR-5): > 100 µM (inactive)
- GI50 (OVCAR-8): > 100 µM (inactive)
- GI50 (MDA-MB-435): 59.6 µM (inactive)
- GI50 (OVCAR-3): 94.8 µM (inactive)
- GI50 (M14): 91.4 µM (inactive)
- GI50 (NCI-H522): 75.3 µM (inactive)
- GI50 (SF-268): > 100 µM (inactive)
- GI50 (SN12C): 26.1 µM (inactive)
- GI50 (UACC-257): 49.3 µM (inactive)
- GI50 (SW-620): > 100 µM (inactive)
- GI50 (Malme-3M): 44 µM (inactive)

SMILES: OC(Cc1ccc2ccccc2n1)(C(F)(F)F)C(F)(F)F
- GI50 (A549): > 10 µM (inactive)
- GI50 (U-251): > 10 µM (inactive)
- GI50 (TK-10): > 10 µM (inactive)
- GI50 (SNB-75): > 10 µM (inactive)
- GI50 (ACHN): > 10 µM (inactive)
- GI50 (MOLT-4): > 10 µM (inactive)
- GI50 (K562): > 10 µM (inactive)
- GI50 (HCT-15): > 10 µM
- GI50 (OVCAR-5): > 10 µM (inactive)
- GI50 (OVCAR-8): > 10 µM (inactive)
- GI50 (MDA-MB-435): > 10 µM (inactive)
- GI50 (OVCAR-3): > 10 µM (inactive)
- GI50 (M14): > 10 µM (inactive)
- GI50 (NCI-H522): > 10 µM (inactive)
- GI50 (SF-268): > 10 µM (inactive)
- GI50 (SN12C): > 10 µM (inactive)
- GI50 (UACC-257): > 10 µM (inactive)
- GI50 (SW-620): > 10 µM (inactive)
- GI50 (Malme-3M): > 10 µM (inactive)

SMILES: N#CCCN(CCC#N)c1ccc(/C=C2\N=C(c3ccccc3)N(c3ccccc3)C2=O)cc1
- GI50 (A549): > 100 µM (inactive)
- GI50 (U-251): > 100 µM (inactive)
- GI50 (TK-10): > 100 µM (inactive)
- GI50 (ACHN): > 100 µM (inactive)
- GI50 (MOLT-4): 8.59 µM (inactive)
- GI50 (K562): 18.5 µM (inactive)
- GI50 (HCT-15): 6.25 µM
- GI50 (OVCAR-5): > 100 µM (inactive)
- GI50 (OVCAR-8): > 100 µM (inactive)
- GI50 (MDA-MB-435): > 100 µM (inactive)
- GI50 (OVCAR-3): > 100 µM (inactive)
- GI50 (M14): > 100 µM (inactive)
- GI50 (NCI-H522): 18.7 µM (inactive)
- GI50 (NCI-H226): > 100 µM (inactive)
- GI50 (SN12C): > 100 µM (inactive)
- GI50 (UACC-257): > 100 µM (inactive)
- GI50 (SW-620): > 100 µM (inactive)
- GI50 (Malme-3M): > 100 µM (inactive)

SMILES: CCOC(OCC)[C@@H]1C[C@@H]2N(O[C@H](OC3CCCC3(c3ccccc3)c3ccccc3)[C@H](OC(C)=O)[C@@]2(CC)Cc2ccc(OC)c(OC)c2)O1 (some centres not stated)
- GI50 (A549): > 100 µM (inactive)
- GI50 (U-251): > 100 µM (inactive)
- GI50 (TK-10): > 100 µM (inactive)
- GI50 (SNB-75): > 100 µM (inactive)
- GI50 (ACHN): > 100 µM (inactive)
- GI50 (MOLT-4): > 100 µM (inactive)
- GI50 (K562): > 100 µM (inactive)
- GI50 (HCT-15): > 100 µM
- GI50 (OVCAR-5): > 100 µM (inactive)
- GI50 (MDA-MB-435): > 100 µM (inactive)
- GI50 (OVCAR-3): > 100 µM (inactive)
- GI50 (M14): > 100 µM (inactive)
- GI50 (NCI-H522): > 100 µM (inactive)
- GI50 (NCI-H226): > 100 µM (inactive)
- GI50 (SF-268): > 100 µM (inactive)
- GI50 (SN12C): > 100 µM (inactive)
- GI50 (UACC-257): > 100 µM (inactive)
- GI50 (SW-620): > 100 µM (inactive)

SMILES: O=C1CSC(c2ccc([N+](=O)[O-])cc2)N1c1ccc(-n2c(-c3ccccc3)nc3ccccc3c2=O)cc1 (configuration not stated)
- GI50 (A549): > 100 µM (inactive)
- GI50 (U-251): > 100 µM (inactive)
- GI50 (TK-10): > 100 µM (inactive)
- GI50 (ACHN): 77.8 µM (inactive)
- GI50 (MOLT-4): 29.5 µM (inactive)
- GI50 (K562): 86.9 µM (inactive)
- GI50 (HCT-15): 41.3 µM
- GI50 (OVCAR-5): > 10 µM (inactive)
- GI50 (OVCAR-8): > 100 µM (inactive)
- GI50 (MDA-MB-435): > 100 µM (inactive)
- GI50 (OVCAR-3): > 100 µM (inactive)
- GI50 (M14): > 100 µM (inactive)
- GI50 (NCI-H522): 40.8 µM (inactive)
- GI50 (NCI-H226): 2.96 µM (inactive)
- GI50 (SF-268): 38.5 µM (inactive)
- GI50 (SN12C): > 100 µM (inactive)
- GI50 (UACC-257): > 100 µM (inactive)
- GI50 (SW-620): > 100 µM (inactive)
- GI50 (Malme-3M): > 100 µM (inactive)

SMILES: CCOC(=O)CSc1nc(-c2ccc(OC)cc2)c(C#N)c(=O)[nH]1
- GI50 (A549): > 100 µM (inactive)
- GI50 (U-251): > 100 µM (inactive)
- GI50 (TK-10): > 100 µM (inactive)
- GI50 (SNB-75): > 100 µM (inactive)
- GI50 (ACHN): > 100 µM (inactive)
- GI50 (MOLT-4): > 100 µM (inactive)
- GI50 (K562): > 100 µM (inactive)
- GI50 (HCT-15): > 100 µM
- GI50 (OVCAR-5): > 100 µM (inactive)
- GI50 (OVCAR-8): > 100 µM (inactive)
- GI50 (MDA-MB-435): > 100 µM (inactive)
- GI50 (OVCAR-3): > 100 µM (inactive)
- GI50 (M14): > 100 µM (inactive)
- GI50 (NCI-H522): > 100 µM (inactive)
- GI50 (NCI-H226): > 100 µM (inactive)
- GI50 (SF-268): > 100 µM (inactive)
- GI50 (SN12C): > 100 µM (inactive)
- GI50 (UACC-257): > 100 µM (inactive)
- GI50 (SW-620): > 100 µM (inactive)

— ChEMBL document CHEMBL1201862, “PubChem BioAssay data set” (2004)
